Laboratory results from PMC6510909 (Investigational New Drugs, 2018).
Like-named read-outs stand apart in the source and are kept apart here.

What was measured:
[1] = Plasma pharmacokinetics on Cycle 1 Day 15, noncompartmental; assay type: in vivo, human; conditions: for Cmax / half-life / Tmax / AUC: human, plasma, oral
Experimental: Blood samples were collected from patients prior to the MMB dose and at specified time points up to 24 h post-dose on Cycle 1 Day 15. Pharmacokinetic (PK) parameters were estimated using Phoenix WinNonlin® software (Certara USA, Inc., Princeton, NJ) using standard noncompartmental methods.

[2] = test system: patients with previously untreated metastatic PDAC; conditions: for Overall safety and tolerability: in combination with nab-P + G, up to 200 mg twice daily
From the text: Patients were ≥ 18 years of age with previously untreated metastatic PDAC (measurable per Response Evaluation Criteria in Solid Tumors [RECIST] v 1.1); and an Eastern Cooperative Oncology Group (ECOG) performance status ≤1 and adequate hematologic, renal, and hepatic function. […] All patients provided written informed consent prior to enrollment.
Screening occurred within 21 days before the first MMB dose and included medical history and prior/concomitant medication review, physical exam and assessments of vital signs, ECOG performance status, pregnancy test (females), laboratory assessment, adverse event (AE) assessment, and staging CT or MRI. MMB was given orally once or twice daily as per the assigned dosing cohort: Cohort 1–100 mg MMB once daily; Cohort 2–150 mg MMB once daily; Cohort 3–200 mg MMB once daily; Cohort 4–150 mg MMB twice daily; and Cohort 5–200 mg MMB twice daily. […] Each dose cohort consisted of 3 patients, unless a dose-limiting toxicity (DLT) was experienced during the first 28 days of treatment. If one DLT was experienced, 3 additional patients were enrolled in the dose cohort. If a second DLT was experienced in the same cohort, MTD was considered to be exceeded. Dose escalation continued from Dose Level 2 to 3 to 4 to 5 if no DLT occurred in 3 evaluable subjects or < 2 DLTs occurred in 6 evaluable patients within each dose level.
Primary endpoint was incidence of DLT(s) based on the Common Terminology Criteria for Adverse Events (CTCAE) version 4.03. Secondary endpoints were overall survival (OS) (defined as the time interval from the first dose of MMB to death from any cause; patients lost to follow-up or who survived until the end of study were censored at the last date that they were known to be alive), progression-free survival (PFS) (defined as the time interval from the first dose of MMB to the earlier of the first documentation of definitive disease progression or death from any cause), overall response rate (ORR) (proportion of patients who achieved a complete or partial response [CR or PR, respectively] during MMB therapy), and duration of response (time from CR or PR to definitive disease progression or death from any cause).
Planned enrollment was up to 30 patients based on the standard 3 + 3 design. The efficacy analyses were conducted in all enrolled patients. Safety analyses were conducted in all enrolled patients who received ≥1 dose of study treatment. Descriptive summary statistics were provided for patient characteristics and safety variables. Kaplan-Meier estimates were used for OS, PFS, duration of response, and their 95% confidence intervals (CIs). The ORR was summarized for each dose level cohort with corresponding 2-sided 95% exact CIs based on the Clopper-Pearson method.

TBK1 = TBK1 inhibition estimated from plasma Cmax; parameters: species or system human
[3] = all cohorts, MMB + nab-P + G, n = 25
[4] = all cohorts, MMB + nab-P + G, AE consistent with JAK1/2 inhibition

## N#CCNC(=O)c1ccc(-c2ccnc(Nc3ccc(N4CCOCC4)cc3)n2)cc1 [MMB, momelotinib]
[1]; 100-200 mg MMB
  Increases in exposure with dose: less than dose-proportional
[1]; Cycle 1 Day 15
  AUCtau, 200 mg once-daily compared with 100 mg once-daily: less than 2 fold
  Cmax, 200 mg once-daily compared with 100 mg once-daily: less than 2 fold
[1]; 100 mg, 100 mg MMB QD n = 6, steady state, mean (% coefficient of variation), read-out: Cmax
  Cmax: 0.258 µg/mL
[1]; 100 mg, 100 mg MMB QD n = 6, steady state, median (first quarter, third quarter), read-out: T 1/2 (converted)
  half-life: 5.4 h
[1]; 100 mg, 100 mg MMB QD n = 6, steady state, median (first quarter, third quarter), read-out: Tmax
  Tmax: 4.5 h
[1]; 100 mg, 100 mg MMB QD n = 6, steady state, mean (% coefficient of variation)
  AUC: 2 µg·h/mL
[1]; 150 mg, 150 mg MMB BID n = 1, steady state
  AUC: 1.52 µg·h/mL
[1]; 150 mg, 150 mg MMB BID n = 1, steady state, read-out: Cmax
  Cmax: 0.215 µg/mL
[1]; 150 mg, 150 mg MMB BID n = 1, steady state, read-out: T 1/2 (converted)
  half-life: 5 h
[1]; 150 mg, 150 mg MMB BID n = 1, steady state, read-out: Tmax
  Tmax: 3 h
[1]; 150 mg, 150 mg MMB QD n = 3, steady state, mean (% coefficient of variation), read-out: Cmax
  Cmax: 0.2 µg/mL
[1]; 150 mg, 150 mg MMB QD n = 3, steady state, median (first quarter, third quarter), read-out: T 1/2 (converted)
  half-life: 6.6 h
[1]; 150 mg, 150 mg MMB QD n = 3, steady state, median (first quarter, third quarter), read-out: Tmax
  Tmax: 3.2 h
[1]; 150 mg, 150 mg MMB QD n = 3, steady state, mean (% coefficient of variation)
  AUC: 1.68 µg·h/mL
[1]; 200 mg, 200 mg MMB BID n = 3, steady state, mean (% coefficient of variation), read-out: Cmax
  Cmax: 0.33 µg/mL
[1]; 200 mg, 200 mg MMB BID n = 3, steady state, median (first quarter, third quarter), read-out: T 1/2 (converted)
  half-life: 5.5 h
[1]; 200 mg, 200 mg MMB BID n = 3, steady state, median (first quarter, third quarter), read-out: Tmax
  Tmax: 3 h
[1]; 200 mg, 200 mg MMB BID n = 3, steady state, mean (% coefficient of variation)
  AUC: 1.98 µg·h/mL
[1]; 200 mg, 200 mg MMB QD n = 6, steady state, mean (% coefficient of variation), read-out: Cmax
  Cmax: 0.364 µg/mL
[1]; 200 mg, 200 mg MMB QD n = 6, steady state, median (first quarter, third quarter), read-out: T 1/2 (converted)
  half-life: 5.3 h
[1]; 200 mg, 200 mg MMB QD n = 6, steady state, median (first quarter, third quarter), read-out: Tmax
  Tmax: 3.5 h
[1]; 200 mg, 200 mg MMB QD n = 6, steady state, mean (% coefficient of variation)
  AUC: 3.34 µg·h/mL
[1]; Cycle 1 Day 15, across dose levels, approximately, read-out: Median terminal half-life
  half-life: 5 to 6.6 h
[1]; Cycle 1 Day 15, across dose levels, approximately, read-out: Time to peak plasma concentration after the first dose of MMB
  Tmax: 3 to 4.5 h
[1]; across dose levels, approximately, read-out: Maximum plasma concentration (Cmax), overall
  Cmax: ~0.3 µg/mL
[1]; converted from approximately 300 ng/mL, read-out: Maximum plasma concentration (Cmax), overall
  Cmax: 0.72 µM
[2]; 100 mg MMB once daily + nab-P + G
  Dose-limiting toxicity (Grade 3 diarrhea), patients: 1 patient
[2]; 200 mg MMB once daily + nab-P + G
  Dose-limiting toxicity (Grade 3 diarrhea), patients: 1 patient
[2]; MMB up to 200 mg twice daily + nab-P + G
  Maximum tolerated dose (MTD): not reached
[2]; [3]
  Deaths due to TEAEs: no deaths
  Grade 3 MMB-related AE deep vein thrombosis: 4.0%
  Grade 3 MMB-related AE dehydration: 4.0%
  Grade 3 MMB-related AE diarrhea: 12.0%
  Grade 3 MMB-related AE fatigue: 4.0%
  Grade 3 MMB-related AE febrile neutropenia: 4.0%
  Grade 3 MMB-related AE generalized edema: 4.0%
  Grade 3 MMB-related AE hypertension: 4.0%
  Grade 3 MMB-related AE malaise: 4.0%
  Grade 3 MMB-related AE nephrolithiasis: 4.0%
  Grade 3 MMB-related AE peripheral edema: 4.0%
  Grade 3 MMB-related AE peripheral sensory motor neuropathy: 8.0%
  Grade 3 MMB-related AE polyneuropathy: 4.0%
  Grade 3 MMB-related AE respiratory distress: 4.0%
  Grade 3 MMB-related AE thrombocytopenia: 8.0%
  Grade 3 MMB-related AE tremor: 4.0%
  Grade 3 or 4 AEs considered related to MMB: 44%
  Grade 3 or 4 TEAEs, patients: 88%
  Grade 3 or 4 neutropenia, patients: 32%
  Grade 4 MMB-related event embolic stroke: 4.0%
  Grade 4 MMB-related event increased blood uric acid: 4.0%
  Grade 4 MMB-related event neutropenia: 4.0%
  Neutropenia Grade 3, patients: 16%
  Neutropenia Grade 4, patients: 16%
  Patients with at least one treatment-emergent AE (TEAE): All patients
  Peripheral neuropathy attributed by investigators as related to the drug, patients: 16%
  Peripheral neuropathy leading to discontinuation of MMB, patients: 8%
  Peripheral sensory neuropathy attributed by investigators as related to the drug, patients: 24%
  Pneumonia Grade 3, patients: 24%
  SAEs considered related to MMB, patients: 24%
  Serious AEs (SAEs), patients: 72%
  TEAE abdominal pain, patients: 44%
  TEAE alopecia, patients: 40%
  TEAE anemia, patients: 68%
  TEAE constipation, patients: 52%
  TEAE decreased appetite, patients: 40%
  TEAE diarrhea, patients: 64%
  TEAE dysgeusia, patients: 40%
  TEAE fatigue, patients: 80%
  TEAE hypertension, patients: 36%
  TEAE nausea, patients: 76%
  TEAE peripheral edema, patients: 48%
  TEAE peripheral neuropathy, patients: 36%
  TEAE peripheral sensory neuropathy, patients: 36%
  TEAE pyrexia, patients: 56%
  TEAE vomiting, patients: 52%
[2]; all cohorts, MMB + nab-P + G, n = 25, higher incidence at the two highest dose levels
  Peripheral neuropathy, predefined AE of interest, patients: 60%
[2]; [4]
  AE neutropenia, patients: 32%
  AE thrombocytopenia, patients: 20%
[2]
  Overall safety and tolerability: safe and well tolerated
[2]; listed as Momelotinib
  Overall safety and tolerability: well tolerated
[2]; twice daily, + nab-P + G
  Maximum administered dose (MAD): 200 mg
TBK1; based on the Cmax of approximately 300 ng/mL
  Estimated transient maximal TBK1 inhibition: EC70
TBK1; pharmacokinetic analyses
  MMB concentrations relative to TBK1 inhibition: too low
